Columns and labels:
[1] = system: KEAP1; assay: Western blot of KEAP1 / HMW-KEAP1 formation in treated cells (HEK293T FLAG-KEAP1, IMR32); assay type: cell-based, human
Experimental: FLAG-tagged Protein Expression and Western Blotting. Full-length, human PGK1 (NM_000291, Origene) transiently expressed from a pCMV6 entry vector with a C-terminal Myc-DDK tag; full-length, human KEAP1 (28023, Addgene) was transiently expressed from a pcDNA/FRT/TO plasmid with a C-terminal 3×FLAG tag. All references to FLAG-PGK1 or FLAG-KEAP1 represent the proteins in the aforementioned vectors, respectively. Transient protein expression was performed in confluent 10 cm plates of HEK293T cells by transfection of 1 μg plasmid with Lipofectamine 2000 (Invitrogen) according to manufacturer's protocol. For in situ compound or metabolite treatment experiments, compounds were added approximately 24 hours after transfection, and incubated for the indicated duration. For FLAG-KEAP1 western blotting and immunoprecipitation experiments, cells were harvested by scraping, pelleted by centrifugation, washed twice with PBS and lysed in 8 M urea, 50 mM NH4HCO3, phosphatase inhibitor cocktail (Sigma Aldrich), and EDTA-free complete protease inhibitor (Roche), pH 8.0, at 4° C. Lysate was sonicated (Fisher Scientific FB-505), insoluble debris cleared by centrifugation, and the supernatant was diluted into 4× Laemmli buffer containing 50 mM dithiothreitol (DTT) as a reducing agent. Samples were prepared for SDS-PAGE by heating to 95° C. for 5 minutes, cooled to room temperature, resolved on NuPAGE Novex 4-12% Bis-Tris Protein Gels (Invitrogen), and transferred onto nitrocellulose membranes by standard western blotting methods. Membranes were blocked in 2% BSA in TBS containing 0.1% tween-20 (TBST) and probed with primary and secondary antibodies. Primary antibodies used in this study include: anti-FLAG-M2 (1:1000, F1804, Sigma Aldrich), anti-KEAP1 (1:500, SC-15246, Santa Cruz), anti-HSPA1A (1:1000, 4872, Cell Signaling), anti-ACTB (1:1000, 4790, Cell Signaling), anti-GAPDH (1:1000, 2118S, Cell Signaling) and TUBG (1:1000, 5886, Cell Signaling). […]

[2] = target: T1, KEAP1 (Homo sapiens, UniProt Q14145); assay: Targeted proteomic analysis of crosslinked KEAP1 peptides; assay type: cell-based; details: gel-isolated HMW-KEAP1 vs monomeric KEAP1
T1 construct: full-length, human KEAP1 (28023, Addgene) was transiently expressed from a pcDNA/FRT/TO plasmid with a C-terminal 3×FLAG tag; host or cells: HEK293T
Experimental: In-gel digestion of KEAP1 Targeted proteomic analyses of KEAP1 protein were performed by running anti-FLAG enriched HMW-KEAP1 and LMW-KEAP1 (from both CBR-470-1 or MGx treatments as above) on SDS-PAGE gels, and isolated gel pieces were digested in-gel with sequencing grade trypsin (Promega), as previously reported^35. Tryptic peptides from in-gel tryptic digestions were dissolved in 100 mM Tris-HCl, pH 8.0, with 2 mM of CaCl2), and further digested with mass spectrometry-grade chymotrypsin (Thermo Scientific) according to manufacturer's protocol. Chymotryptic digestion reactions were stopped by acidification, and desalted on Ziptip C18 tips.
Targeted proteomic analysis of crosslinked KEAP1 peptides. Double digested KEAP1 peptides from isolated HMW-KEAP1 and monomeric KEAP1 were analyzed by LC-MS/MS on an Easy-nLC 1000 ultra-high pressure LC system coupled to a Q Exactive HF orbitrap and Easy-Spray nanosource as indicated above. Candidate peptides were initially searched by manual inspection of chromatograms and MS1 spectra for m/z values of peptide candidates from predicted digestion sites, crosslink sites and differential presence in HMW- and monomeric KEAP1 from both CBR-470-1 and MGx treated samples. Extracted MS1 ions of the candidates were present in HMW-KEAP1 digests but not in LMW-KEAP1 digests. […]

[3] = LC-MS quantification of compound incubated with or without GSH (glutathione reactivity); assay type: physicochemical; details: 50 μM compound, GSH 1 mM in PBS, 1 hour and 48 hours
Experimental: FIG. 4 A high throughput screen identifies a non-covalent NRF2 activator chemical series which activate a robust NRF2 transcriptional program in multiple cell types. LC-MS quantification of CBR-470-1 (50 μM) incubated in the presence or absence of GSH (1 mM) in PBS for 1 hour (left) and 48 hours (right). Relative ion intensities within each time point were compared with representative chromatograms shown (n=2).

T1 sequence (Q14145 whole entry): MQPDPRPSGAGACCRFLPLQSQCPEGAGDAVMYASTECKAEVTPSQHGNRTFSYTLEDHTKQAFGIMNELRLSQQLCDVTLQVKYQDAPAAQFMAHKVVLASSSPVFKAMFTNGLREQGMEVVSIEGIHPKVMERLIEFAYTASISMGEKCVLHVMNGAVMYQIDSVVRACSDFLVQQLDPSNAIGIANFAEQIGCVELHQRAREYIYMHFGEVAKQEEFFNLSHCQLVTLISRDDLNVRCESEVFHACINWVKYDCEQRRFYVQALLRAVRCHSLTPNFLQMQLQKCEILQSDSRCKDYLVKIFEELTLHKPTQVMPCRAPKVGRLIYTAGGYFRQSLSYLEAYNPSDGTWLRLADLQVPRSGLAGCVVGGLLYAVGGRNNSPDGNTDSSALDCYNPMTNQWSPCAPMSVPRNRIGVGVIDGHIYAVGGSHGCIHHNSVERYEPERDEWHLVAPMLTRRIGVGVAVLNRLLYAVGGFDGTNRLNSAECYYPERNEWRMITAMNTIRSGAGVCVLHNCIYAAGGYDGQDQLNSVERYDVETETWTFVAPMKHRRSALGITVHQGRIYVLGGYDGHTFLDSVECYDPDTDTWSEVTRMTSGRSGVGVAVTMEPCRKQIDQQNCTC

Structure (SMILES)	formation of HMW-KEAP1 ([1]; treatment of cell lysates or live cells with metabolite)	MICA crosslinked C151-R135 KEAP1 peptide [2]	reactivity in glutathione assays [3]	KEAP1 levels and α-pgK immunoreactive bands ([1]; IMR32 cells, 30 minutes)	high molecular weight KEAP1 (HMW-KEAP1) band ([1]; Western blot of treated cells)
CC(=O)C=O [MGx, methylglyoxal, reference compound]	selective formation of HMW-KEAP1	MICA crosslink between C151 and R135 was identified in isolated HMW-KEAP1	–	–	–
CC(C)CN[C@H]1CS(=O)(=O)C[C@@H]1S(=O)(=O)c1ccc(Cl)cc1 [CBR-470-1]	–	MICA crosslink between C151 and R135 was identified in isolated HMW-KEAP1	not reactive in glutathione assays	did not result in altered KEAP1 levels, or any α-pgK immunoreactive bands	dose-dependent, high molecular weight KEAP1 (HMW-KEAP1) band
